Reference: paper PMC2248166, “Quantitative peptide binding motifs for 19 human and mouse MHC class I molecules derived using positional scanning combinatorial peptide libraries” (Immunome Research, 2008)

What was measured:
HLA A*3201 = HLA A*3201 (Homo sapiens, UniProt P04439, A270S/D101S/D185E/E176V/E277Q/F133L/G103R/G107R/G231S/H175R/I121M/I218V/I322F/K168Q/L105A/L300P/L318F/M331R/P208A/P217A/Q94H/R106L/R138Q/S129P/T104I/T323A/T345S/V100E/V321M/V358M); assay: biochemical; assay type: binding
HLA B*0702 = HLA B*0702 (Homo sapiens, UniProt P01889); assay type: binding; settings: positional scanning combinatorial 9-mer library; normalized to 1.0 for the best residue at each position
HLA B*1501 = HLA B*1501 (Homo sapiens, UniProt P01889, A329T/A93T/A95T/C349S/D201E/D98Y/E187L/E204Q/E69M/E70A/K202T/N87E/Q94N/R155S/R180W/S121R/S35A/S48A/V306I/V36M/Y140S/Y91S); assay: biochemical; assay type: binding
HLA A*6802 = HLA A*6802 (Homo sapiens, UniProt P04439, A269V/D140Y/D185E/E176V/E277Q/E87N/F33Y/G231S/I121R/I166T/I218V/L180W/L300P/L318F/N151K/P208A/P217A/Q86R/R138H/R169H/S129P/T345S/V36M); assay type: binding
HLA B*5401 = HLA B*5401 (Homo sapiens, UniProt P01889, A329T/C349S/D138N/D201E/E176V/E187T/E204Q/E69G/I76V/K202T/L119W/R155S/R180L/S121T/S35A/S48A/V127L/V306I/V36M/Y140L); assay type: binding
H-2 D^d = H-2 D^d (Mus musculus, UniProt P01900); assay type: binding
Chain of H-2 D^d (P01900 whole entry, looked up): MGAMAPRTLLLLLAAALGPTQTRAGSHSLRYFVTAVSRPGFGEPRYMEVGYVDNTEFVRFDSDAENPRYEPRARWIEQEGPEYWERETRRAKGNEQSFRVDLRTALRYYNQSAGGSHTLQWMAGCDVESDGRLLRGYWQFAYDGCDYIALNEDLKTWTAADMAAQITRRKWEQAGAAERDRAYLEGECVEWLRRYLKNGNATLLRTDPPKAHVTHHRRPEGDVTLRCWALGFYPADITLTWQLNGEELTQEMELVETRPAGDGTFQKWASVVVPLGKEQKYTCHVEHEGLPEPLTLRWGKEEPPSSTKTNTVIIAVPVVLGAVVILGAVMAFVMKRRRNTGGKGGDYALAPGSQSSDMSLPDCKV

HLA B*0801 = HLA B*0801 (Homo sapiens, UniProt P01889, A93T/A95T/D138N/E176V/E187T/K202T/Q94N/R180D/S35A/V36M/Y33D/Y91F); assay: biochemical; assay type: binding
H-2 K^k = H-2 K^k (Mus musculus, UniProt P04223); assay type: binding
Chain of H-2 K^k (P01887 21-119): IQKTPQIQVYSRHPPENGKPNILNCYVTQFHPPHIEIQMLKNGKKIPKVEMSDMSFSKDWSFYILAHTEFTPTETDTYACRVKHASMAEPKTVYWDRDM
Chain of H-2 K^k (P04223 22-369): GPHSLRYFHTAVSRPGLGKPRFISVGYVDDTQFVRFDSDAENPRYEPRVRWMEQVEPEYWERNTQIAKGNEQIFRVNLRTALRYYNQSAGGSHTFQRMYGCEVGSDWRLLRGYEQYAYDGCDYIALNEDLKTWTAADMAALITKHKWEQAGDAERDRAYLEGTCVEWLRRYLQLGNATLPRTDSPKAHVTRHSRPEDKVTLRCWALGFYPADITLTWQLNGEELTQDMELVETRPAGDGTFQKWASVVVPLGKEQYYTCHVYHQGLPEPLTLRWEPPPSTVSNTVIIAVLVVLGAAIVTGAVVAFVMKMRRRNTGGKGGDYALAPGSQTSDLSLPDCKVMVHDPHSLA

HLA B*5301 = HLA B*5301 (Homo sapiens, UniProt P01889, A329T/A93T/A95T/C349S/D201E/D98Y/E176V/E187L/E204Q/E69T/G107R/I218V/K202T/L105A/L119I/N104I/Q94N/R106L/R155S/R180L/S101N/S121R/S35A/S48A/T118I/V127L/V306I/V36M/Y140S/Y91F); assay type: binding
HLA B*3501 = HLA B*3501 (Homo sapiens, UniProt P01889, A329T/A93T/A95T/C349S/D201E/D98Y/E176V/E187L/E204Q/E69T/I218V/K202T/L119I/Q94N/R155S/R180L/S121R/S35A/S48A/T118I/V127L/V306I/V36M/Y140S/Y91F); assay type: binding
HLA B*1503 = HLA B*1503 (Homo sapiens, UniProt P01889, A329T/A93T/A95T/C349S/D201E/D98Y/E187L/E204Q/K202T/N87E/Q94N/R155S/R180L/S121R/S35A/V306I/V36M/Y140S/Y91S); assay: biochemical; assay type: binding
HLA B*5801 = HLA B*5801 (Homo sapiens, UniProt P01889, A329T/C349S/D201E/D98Y/E176V/E187L/E204Q/E69T/G107R/I218V/I90N/K202T/L105A/L119I/N104I/N87E/Q89R/Q94S/R106L/R155S/R180L/R86G/S101N/S121R/S35A/S48A/T118I/V127L/V306I/V36M/Y140S/Y91M); assay type: binding
HLA B*5802 = HLA B*5802 (Homo sapiens, UniProt P01889, A329T/C349S/D201E/D98Y/E176V/E187L/E204Q/E69T/G107R/I218V/I90N/K202T/L105A/N104I/N87E/Q89R/Q94S/R106L/R155S/R180L/R86G/S101N/S121W/S35A/S48A/V127L/V306I/V36M/Y140S/Y91M); assay type: binding
HLA B*5101 = HLA B*5101 (Homo sapiens, UniProt P01889, A329T/A93T/A95T/C349S/D138N/D201E/D98Y/E187L/E204Q/E69T/G107R/I218V/K202T/L105A/L119W/N104I/Q94N/R106L/R155S/R180L/S101N/S121T/S35A/S48A/V306I/V36M/Y195H/Y91F); assay type: binding
HLA A*3001 = HLA A*3001 (Homo sapiens, UniProt P04439, D140H/D185E/E176W/F33S/G80R/H175R/K168Q/R138E/R41S); assay: biochemical; assay type: binding
HLA B*2705 = HLA B*2705 (Homo sapiens, UniProt P01889, D138H/D201E/E176V/E204Q/G107R/H137Y/K202T/N104T/N87E/Q56L/Q94K/R106L/R155S/R180L/S101D/S121N/S48T/Y140D/Y33H/Y91C); assay type: binding; settings: positional scanning combinatorial 9-mer library; normalized to 1.0 for the best residue at each position
HLA A*0201 = HLA A*0201 (Homo sapiens, UniProt P04439, D140Y/D185E/D98H/E176V/E277Q/G131W/G231S/I119V/I121R/I166T/I218V/L300P/L318F/N151K/N90K/P208A/P217A/Q86G/Q94H/R138H/R169H/T345S); settings: positional scanning combinatorial 9-mer library; normalized to 1.0 for the best residue at each position
H-2 D^b = H-2 D^b (Mus musculus, UniProt P01899); assay type: binding
Chain of H-2 D^b (P01887 21-119): as the sequence (P01887 21-119) above
Chain of H-2 D^b (P01899 25-362): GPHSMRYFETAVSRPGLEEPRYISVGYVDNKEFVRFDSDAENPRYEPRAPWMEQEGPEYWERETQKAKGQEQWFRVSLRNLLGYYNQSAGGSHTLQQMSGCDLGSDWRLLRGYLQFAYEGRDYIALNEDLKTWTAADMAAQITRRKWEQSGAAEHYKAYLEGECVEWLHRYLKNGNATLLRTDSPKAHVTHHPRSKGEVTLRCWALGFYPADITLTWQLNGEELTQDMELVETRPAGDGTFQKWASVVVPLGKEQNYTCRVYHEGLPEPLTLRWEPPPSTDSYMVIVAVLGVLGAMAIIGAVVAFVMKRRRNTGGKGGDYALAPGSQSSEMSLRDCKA

Sequence	Normalized average relative binding affinity (ARB), HLA A*3201 (HLA A*3201)	Normalized average relative binding affinity (ARB), HLA B*0702 (HLA B*0702)	Normalized average relative binding affinity (ARB), HLA B*1501 (HLA B*1501)	Normalized average relative binding affinity (ARB), HLA A*6802 (HLA A*6802)	Normalized average relative binding affinity (ARB), HLA B*5401 (HLA B*5401)	Normalized average relative binding affinity (ARB), H-2 Dd (H-2 D^d)	Normalized average relative binding affinity (ARB), HLA B*0801 (HLA B*0801)	Normalized average relative binding affinity (ARB), H-2 Kk (H-2 K^k)	Normalized average relative binding affinity (ARB), HLA B*5301 (HLA B*5301)	Normalized average relative binding affinity (ARB), HLA B*3501 (HLA B*3501)	Normalized average relative binding affinity (ARB), HLA B*1503 (HLA B*1503)	Normalized average relative binding affinity (ARB), HLA B*5801 (HLA B*5801)	Normalized average relative binding affinity (ARB), HLA B*5802 (HLA B*5802)	Normalized average relative binding affinity (ARB), HLA B*5101 (HLA B*5101)	Normalized average relative binding affinity (ARB), HLA A*3001 (HLA A*3001)	Normalized average relative binding affinity (ARB), HLA B*2705 (HLA B*2705)	Normalized average relative binding affinity (ARB), HLA A*0201 (HLA A*0201)	Normalized average relative binding affinity (ARB), H-2 Db (H-2 D^b)
KXXXXXXXX [3064.0009]	1.0	0.37	0.39	0.013	0.037	0.18	0.039	0.082	0.0057	0.050	0.46	1.0	1.0	0.052	0.49	0.26	0.11	0.14
LXXXXXXXX [3064.0010]	0.48	0.23	0.61	0.071	0.19	0.29	0.22	0.49	0.14	0.31	0.52	0.53	0.044	0.41	0.081	0.26	0.054	0.20
MXXXXXXXX [3064.0011]	0.76	0.56	0.89	0.75	1.0	0.75	0.79	0.78	0.26	0.90	0.40	0.70	0.21	0.32	0.37	0.44	0.25	0.18
NXXXXXXXX [3064.0012]	0.13	0.15	0.22	0.24	0.12	0.19	0.43	0.80	0.027	0.29	0.14	0.056	0.063	0.19	0.065	0.095	0.067	0.31
PXXXXXXXX [3064.0013]	0.055	0.029	0.059	0.0050	0.0097	0.095	0.012	0.052	0.0038	0.023	0.018	0.030	0.059	0.037	0.0059	0.022	0.0032	0.030
QXXXXXXXX [3064.0014]	0.23	0.065	0.25	0.039	0.031	0.39	0.048	0.45	0.021	0.081	0.074	0.17	0.033	0.037	0.063	0.067	0.019	0.060
